Experimental data taken from the supplement of paper PMC10307832.

How the values were obtained:
Test in all cases: relative viability (nuclei count vs DMSO), 5 days (fraction); higher = more cells survive
[1] = compound: O=C(O)c1ccc2c(c1)nc(Nc1cccc(Cl)c1)c1ccncc12 [Silmitasertib] + CC(C)C[C@H](NC(=O)[C@H](Cc1ccccc1)NC(=O)c1cnccn1)B(O)O [Bortezomib] (partner 0.002 µM)
In short: (§1)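 Lung cancer cell lines, seeded in 1536-well plates, were treated the following day by pin tool with a single drug or with five library-drug doses (not always all listed) in √10 steps on top of a fixed anchor-drug dose. Cells were fixed and nuclei stained in one step after 5 days, and nuclei were counted. Relative viability is the nuclei count for treated wells divided by that for vehicle wells, reported as medians of duplicate plates.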

[2] = compound: O=C(O)c1ccc2c(c1)nc(Nc1cccc(Cl)c1)c1ccncc12 [Silmitasertib] + C[C@]1(O)C[C@@H](c2nc(-c3ccc4ccc(-c5ccccc5)nc4c3)c3c(N)nccn32)C1 [Linsitinib] (partner 1 µM)
In short: as §1

[3] = compound: O=C(O)c1ccc2c(c1)nc(Nc1cccc(Cl)c1)c1ccncc12 [Silmitasertib] + N=C(N)NC(=N)NCCc1ccccc1 [Phenformin] (partner 250 µM)
In short: as §1

Silmitasertib + AZD7762 = compound: O=C(O)c1ccc2c(c1)nc(Nc1cccc(Cl)c1)c1ccncc12 [Silmitasertib] + NC(=O)Nc1cc(-c2cccc(F)c2)sc1C(=O)N[C@H]1CCCNC1 [AZD7762] (partner 0.2 µM)
In short: as §1

[4] = compound: O=C(O)c1ccc2c(c1)nc(Nc1cccc(Cl)c1)c1ccncc12 [Silmitasertib] + Nc1ncn([C@H]2C[C@H](O)[C@@H](CO)O2)c(=O)n1 [Decitabine] (partner 2 µM)
In short: as §1

Row | Cell Line | relative viability ([1]; first compound 0.04 µM) | relative viability ([1]; first compound 0.4 µM) | relative viability ([1]; first compound 1.265 µM) | relative viability ([1]; first compound 4 µM) | relative viability ([2]; first compound 0.04 µM) | relative viability ([2]; first compound 0.4 µM) | relative viability ([2]; first compound 1.265 µM) | relative viability ([2]; first compound 4 µM) | relative viability ([3]; first compound 0.04 µM) | relative viability ([3]; first compound 0.4 µM) | relative viability ([3]; first compound 1.265 µM) | relative viability ([3]; first compound 4 µM) | relative viability (Silmitasertib + AZD7762; first compound 0.04 µM) | relative viability (Silmitasertib + AZD7762; first compound 0.4 µM) | relative viability (Silmitasertib + AZD7762; first compound 1.265 µM) | relative viability (Silmitasertib + AZD7762; first compound 4 µM) | relative viability ([4]; first compound 0.04 µM) | relative viability ([4]; first compound 0.4 µM) | relative viability ([4]; first compound 1.265 µM) | relative viability ([4]; first compound 4 µM)
1 | HCC-44 | 0.858 | 0.753 | 0.883 | 0.49 | 0.7 | 0.673 | 0.665 | 0.691 | 0.267 | 0.234 | 0.117 | 0.12 | 0.978 | 1.04 | 1.08 | 0.978 | 0.933 | 0.929 | 1.01 | 0.825
2 | HCC-78 | 0.609 | 0.333 | – | 0.551 | 0.723 | 0.469 | 0.375 | 0.481 | 0.678 | 0.517 | 0.707 | 0.594 | 0.783 | 0.469 | 0.405 | 0.475 | 0.64 | 0.603 | 0.381 | 0.613
3 | HCC-366 | 1.1 | – | 0.995 | 0.482 | 0.869 | – | 0.366 | 0.379 | 0.698 | 0.42 | 0.6 | 0.24 | 0.254 | 0.188 | 0.371 | 0.147 | 0.37 | 0.347 | 0.31 | 0.379
4 | HCC-827 | 1.04 | – | 1.2 | 0.89 | 0.967 | – | 1.18 | 1.18 | 0.436 | – | 0.413 | 0.376 | 0.234 | – | 0.214 | 0.205 | 0.313 | – | 0.153 | 0.292
5 | HOP-62 | 0.504 | – | 0.425 | 0.486 | 0.973 | – | 0.998 | 0.703 | 0.624 | – | 0.662 | 0.608 | 0.554 | – | 0.663 | 0.385 | 0.24 | – | 0.203 | 0.211
6 | LC-2-ad | 1.13 | 0.858 | 1 | 0.605 | 0.731 | 0.881 | 0.836 | 0.918 | 0.645 | 0.59 | 0.488 | 0.314 | 0.95 | 0.811 | 0.797 | 0.494 | 0.836 | 0.794 | 0.689 | 0.665
7 | LCLC-97TM1 | 1.13 | – | 0.521 | 0.208 | 0.178 | – | 0.172 | 0.14 | 0.477 | – | 0.328 | 0.295 | 0.418 | – | 0.191 | 0.128 | 0.236 | – | 0.209 | 0.251
8 | LCLC-103H | 1.15 | 0.956 | 0.817 | 0.739 | 1.09 | 1.19 | 1.04 | 0.796 | 0.314 | 0.307 | 0.32 | 0.23 | 0.839 | 0.803 | 0.759 | 0.588 | 0.791 | 0.655 | 0.616 | 0.556
9 | LOU-NH91 | 0.509 | 0.46 | 0.394 | 0.452 | 1.11 | 0.859 | 0.796 | 0.754 | 0.812 | 0.617 | 0.584 | 0.423 | 0.785 | 0.745 | 0.621 | 0.594 | 0.876 | 0.801 | 0.754 | 0.782
10 | LU99A | 1.22 | 1.18 | 0.899 | 0.438 | 0.574 | 0.632 | 0.396 | 0.361 | 0.883 | 0.883 | 0.848 | 0.518 | 0.339 | 0.382 | 0.276 | 0.283 | 0.824 | 0.837 | 0.808 | 0.605
11 | LXF-289 | 1.02 | – | 1.05 | 0.979 | 0.91 | – | 1.08 | 1.06 | 0.53 | – | 0.58 | 0.382 | 1.13 | – | 1.29 | 1.28 | 0.41 | – | 0.377 | 0.405
12 | NCI-H23 | 1.01 | – | 0.782 | 0.706 | 0.662 | – | 0.448 | 0.582 | 0.639 | – | 0.675 | 0.403 | 0.29 | 0.153 | 0.344 | 0.165 | 0.353 | 0.256 | 0.255 | 0.245
13 | NCI-H322M | 1.25 | 0.881 | 0.947 | 0.804 | 0.868 | 0.809 | 0.62 | 0.453 | 0.783 | 0.761 | 0.603 | 0.384 | 0.554 | 0.608 | 0.562 | 0.405 | 0.727 | 0.686 | 0.674 | 0.649
14 | NCI-H441 | 0.514 | – | 0.496 | 0.17 | 0.455 | – | 0.389 | 0.35 | 0.692 | – | 0.739 | 0.335 | 1.34 | – | 1.09 | 1.16 | 0.207 | – | 0.216 | 0.231
15 | NCI-H460 | 1.22 | 0.967 | 1.09 | 1.15 | 0.779 | 0.84 | 0.782 | 0.899 | 0.523 | 0.525 | 0.583 | 0.414 | 0.608 | 0.671 | 0.759 | 0.384 | 0.551 | 0.511 | 0.478 | 0.363
16 | NCI-H596 | 1 | 0.818 | 1.02 | 0.751 | 1.09 | 1.07 | 0.839 | 0.933 | 0.655 | 0.632 | 0.735 | 0.573 | 1.04 | 1.08 | 0.953 | 0.957 | 0.909 | 1.05 | 1.05 | 0.785
17 | NCI-H647 | 1.12 | 0.866 | 0.705 | 0.343 | 1.37 | 1.24 | 1.05 | 0.663 | 0.513 | 0.303 | 0.477 | 0.189 | 0.513 | 0.364 | 0.404 | 0.19 | 0.411 | 0.387 | 0.344 | 0.288
